Patent publication US8158631B2, “Heterocyclic antiviral compounds” (Roche Palo Alto LLC, priority 2009, dated 2012)

How the values were obtained:
in vitro = settings: human
[1] = test system: HCV replicon cells (2209-23), genotype 1b replicon in Huh7 cells; test: HCV replicon assay (Renilla luciferase reporter); assay type: cell-based, HCV genotype 1b; human hepatoma Huh7 cells; settings: Hepatitis C virus, Huh-7, 72 h, 2209-23 cells, three days incubation
[2] = target: T1, HCV polymerase (NS5B570n-Con1) (Hepatitis C virus genotype 1b, UniProt Q9WMX2); test: HCV NS5B RNA polymerase activity (HCV Polymerase Assay); assay type: biochemical, HCV Con1 strain
T1 construct: contains a 21 amino acid deletion at the C-terminus relative to the full-length HCV polymerase; made in house; host or cells: E. coli strain BL21(DE) pLysS, plasmid pET17b
Experimental: The enzymatic activity of HCV polymerase (NS5B570n-Con1) was measured as the incorporation of radiolabeled nucleotide monophosphates into acid insoluble RNA products. Unincorporated radiolabeled substrate was removed by filtration and scintillant was added to the washed and dried filter plate containing radiolabeled RNA product. The amount of RNA product generated by NS5B570-Con1 at the end of the reaction was directly proportional to the amount of light emitted by the scintillant.
The N-terminal 6-histidine tagged HCV polymerase, derived from HCV Con1 strain, genotype 1b (NS5B570n-Con1) contains a 21 amino acid deletion at the C-terminus relative to the full-length HCV polymerase and was purified from E. coli strain BL21(DE) pLysS. The construct, containing the coding sequence of HCV NS5B Con1 (GenBank accession number AJ242654) was inserted into the plasmid construct pET17b, downstream of a T7 promoter expression cassette and transformed into E. coli. A single colony was grown overnight as a starter culture and later used inoculate 10 L of LB media supplemented with 100 μg/mL ampicillin at 37° C. Protein expression was induced by the addition of 0.25 mM isopropyl-β-D-thiogalactopyranoside (IPTG) when optical density at […] of the culture was between 0.6 and 0.8 and cells were harvested after 16 to 18 h at 30° C. NS5B570n-Con1 was purified to homogeneity using a three-step protocol including subsequent column chromatography on Ni-NTA, SP-Sepharose HP and Superdex 75 resins.
Each 50 μL enzymatic reaction contained 20 nM RNA template derived from the complementary sequence of the Internal Ribosome Entry Site (cIRES), 20 nM NS5B570n-Con1 enzyme, 0.5 μCi of tritiated UTP (Perkin Elmer catalog no. TRK-412; specific activity: 30 to 60 Ci/mmol; stock solution concentration from 7.5×10^−5 M to 20.6×10^−6 M), 1 μM each ATP, CTP, and GTP, 40 mM Tris-HCl pH 8.0, 40 mM NaCl, 4 mM DTT (dithiothreitol), 4 mM MgCl2, and 5 μL of compound serial diluted in DMSO. Reaction mixtures were assembled in 96-well filter plates (cat #MADVNOB, Millipore Co.) and incubated for 2 h at 30° C. Reactions were stopped by addition of 10% final (v/v) trichloroacetic acid and incubated for 40 min at 4° C. Reactions were filtered, washed with 8 reaction volumes of 10% (v/v) trichloroacetic acetic acid, 4 reaction volumes of 70% (v/v) ethanol, air dried, and 25 μL of scintillant (Microscint 20, Perkin-Elmer) was added to each reaction well.
The amount of light emitted from the scintillant was converted to counts per minute (CPM) on a Topcount® plate reader (Perkin-Elmer, Energy Range: Low, Efficiency Mode Normal, Count Time: 1 min, Background Subtract: none, Cross talk reduction: Off).
Data was analyzed in Excel® (Microsoft®) and ActivityBase® (Idbs®). The reaction in the absence of enzyme was used to determine the background signal, which was subtracted from the enzymatic reactions. Positive control reactions were performed in the absence of compound, from which the background corrected activity was set as 100% polymerase activity. All data was expressed as a percentage of the positive control.
The compound concentration at which the enzyme-catalyzed rate of RNA synthesis was reduced by 50% (IC50) was calculated by fitting equation (i) to the data where“Y”
[formula] corresponds to the relative enzyme activity (in %), “% Min” is the residual relative activity at saturating compound concentration, “% Max” is the relative maximum enzymatic activity, “X” corresponds to the compound concentration, and “S” is the Hill coefficient (or slope).

HCV = settings: cited from earlier work

Row | Compound | CC50 (in vitro) [nM] | IC50 [1] [nM] | IC50 [2] [nM] | melting point [°C] | patients with serum amino transferase levels reduced to normal (HCV; monotherapy) | effect on serum levels of HCV-RNA (HCV; sole treatment / monotherapy)
1 | COc1c(/C=C/c2ccc(NS(C)(=O)=O)cc2)cc(N2CCC(C)(C)NC2=O)cc1C(C)(C)C [Compound I-5, N-(4-{(E)-2-[3-tert-Butyl-5-(4,4-dimethyl-2-oxo-tetrahydro-pyrimidin-1-yl)-2-methoxy-phenyl]-vinyl}-phenyl)-methanesulfonamide] | 13800 | 19 | 1 | – | – | –
2 | COc1c(/C=C/c2ccc(NS(C)(=O)=O)cc2)cc(-n2ccncc2=O)cc1C(C)(C)C [Compound I-13] | 21400 | 18.6 | 0.31 | 214 to 216 | – | –
3 | COc1c(CCc2ccc(NS(C)(=O)=O)cc2)cc(N2CCNC2=O)cc1C(C)(C)C [Compound I-4] | – | – | 32 | 229 to 231 | – | –
4 | COc1c(/C=C/c2ccc(NS(C)(=O)=O)cc2C(=O)O)cc(N2CCCNC2=O)cc1C(C)(C)C [Compound I-21] | – | – | 0.23 | 275 to 278 | – | –
5 | COc1c(/C=C/c2ccc(NS(C)(=O)=O)cc2)cc(-n2ccccc2=O)cc1C(C)(C)C [Compound I-9, N-(4-{(E)-2-[3-tert-Butyl-2-methoxy-5-(2-oxo-2H-pyridin-1-yl)-phenyl]-vinyl}-phenyl)-methanesulfonamide] | – | – | 1 | 254 to 256 | – | –
6 | COc1c(/C=C/c2ccc(NS(C)(=O)=O)cc2)cc(-n2ncccc2=O)cc1C(C)(C)C [Compound I-11] | – | – | 0.38 | 260 to 262 | – | –
7 | COc1c(/C=C/c2ccc(NS(C)(=O)=O)cc2CO)cc(-n2ccncc2=O)cc1C(C)(C)C [Compound I-17, N-(4-{(E)-2-[3-tert-Butyl-2-methoxy-5-(2-oxo-2H-pyrazin-1-yl)-phenyl]-vinyl}-3-hydroxymethyl-phenyl)-methanesulfonamide] | – | – | 0.49 | 238 to 240 | – | –
8 | COc1c(/C=C/c2ccc(NS(C)(=O)=O)cc2)cc(-n2ccc(=O)[nH]c2=O)c2c1C(C)(C)CO2 [Compound I-23, N-(4-{(E)-2-[7-(2,4-Dioxo-3,4-dihydro-2H-pyrimidin-1-yl)-4-methoxy-3,3-dimethyl-2,3-dihydro-benzofuran-5-yl]-vinyl}-phenyl)-methanesulfonamide] | – | – | 0.37 | 285 to 288 | – | –
9 | COc1c(/C=C/c2ccc(NS(C)(=O)=O)cc2)cc(-n2cc(F)ccc2=O)cc1C(C)(C)C [Compound I-10] | – | – | 5 | 248 to 250 | – | –
10 | COc1c(/C=C/c2ccc(NS(C)(=O)=O)cc2)cc(-n2cnccc2=O)cc1C(C)(C)C [Compound I-12] | – | – | 1 | 202 to 204 | – | –
11 | NC(=O)c1ncn([C@@H]2O[C@H](CO)[C@@H](O)[C@H]2O)n1 [ribavirin, 1-((2R,3R,4S,5R)-3,4-Dihydroxy-5-hydroxymethyl-tetrahydro-furan-2-yl)-1H-[1,2,4]triazole-3-carboxylic acid amide] | – | – | – | – | 40 % of patients | does not lower serum levels of HCV-RNA
12 | COc1c(CCc2ccc(NS(C)(=O)=O)cc2)cc(N2CCCNC2=O)cc1C(C)(C)C [Compound I-3, N-(4-{2-[3-tert-Butyl-2-methoxy-5-(2-oxo-tetrahydro-pyrimidin-1-yl)-phenyl]-ethyl}-phenyl)-methanesulfonamide] | – | – | 13 | 244 to 246 | – | –
